From patent US20240158446A1, “CYCLIC COMPOUND HAVING SELECTIVE INHIBITORY ACTION ON KRAS OVER HRAS AND NRAS” (CHUGAI SEIYAKU KABUSHIKI KAISHA, priority 2021, published 2024)
Like-named read-outs stand apart in the source and are kept apart here.

Assays:
[1] = target: GDP-bound KRAS wild-type protein (Homo sapiens, UniProt P01116); experiment: Binding to KRAS by surface plasmon resonance (SPR), Single Cycle Kinetics
[2] = target: GDP-bound NRAS wild-type protein (Homo sapiens, UniProt P01111); experiment: Binding to NRAS by surface plasmon resonance (SPR), Single Cycle Kinetics; conditions: for NRAS/KRAS (ratio of KD value for NRAS to KD value for KRAS) / ratio of the KD value with respect to GDP-bound NRAS wild-type protein to the KD value with respect to KRAS: SPR; for NRAS/KRAS (ratio of KD value for NRAS to KD value for KRAS): GDP-bound NRAS wild-type protein vs GDP-bound KRAS wild-type protein; for NRAS/KRAS (ratio of KD value with respect to GDP-bound NRAS wild-type protein to KD value with respect to KRAS): SPR KD ratio NRAS/KRAS, class symbols
Chain of GDP-bound NRAS wild-type protein (P01111 whole entry): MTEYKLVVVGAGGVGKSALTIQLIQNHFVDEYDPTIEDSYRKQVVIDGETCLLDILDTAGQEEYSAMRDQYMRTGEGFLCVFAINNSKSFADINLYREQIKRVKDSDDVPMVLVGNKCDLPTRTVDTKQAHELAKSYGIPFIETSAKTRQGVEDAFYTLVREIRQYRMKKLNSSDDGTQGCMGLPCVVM

[3] = target: GDP-bound HRAS wild-type protein (Homo sapiens, UniProt P01112); experiment: Binding to HRAS by surface plasmon resonance (SPR), Single Cycle Kinetics; conditions: for HRAS/KRAS (ratio of KD value for HRAS to KD value for KRAS) / ratio of the KD value with respect to GDP-bound HRAS wild-type protein to the KD value with respect to KRAS: SPR; for HRAS/KRAS (ratio of KD value for HRAS to KD value for KRAS): GDP-bound HRAS wild-type protein vs GDP-bound KRAS wild-type protein; for HRAS/KRAS (ratio of KD value with respect to GDP-bound HRAS wild-type protein to KD value with respect to KRAS): SPR KD ratio HRAS/KRAS, class symbols
Chain of GDP-bound HRAS wild-type protein (P01112 whole entry): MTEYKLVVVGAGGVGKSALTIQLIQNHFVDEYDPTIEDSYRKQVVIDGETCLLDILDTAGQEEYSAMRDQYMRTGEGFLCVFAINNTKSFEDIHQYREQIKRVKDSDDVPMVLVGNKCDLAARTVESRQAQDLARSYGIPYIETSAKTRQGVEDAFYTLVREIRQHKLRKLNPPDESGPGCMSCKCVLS

[4] = tested on: human lung cancer strain NCI-H441;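 also: cell proliferation inhibition after four days measured by CellTiter-Glo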
[5] = SPR, Single Cycle Kinetics, 1:1 binding model, read-out: KD value with respect to GDP-bound KRAS wild-type protein
[6] = SPR, Single Cycle Kinetics, GDP-bound KRAS wild-type protein, read-out: KRAS KD
[7] = read-out: NCI-H441 cell proliferation inhibitory activity, 50% proliferation inhibitory concentration (IC50 value), NCI-H441, four days, CellTiter-Glo
[8] = SPR Single Cycle Kinetics, GDP-bound KRAS wild-type protein, 1:1 binding model, read-out: KRAS KD

Chain of GDP-bound KRAS wild-type protein (P01116 whole entry): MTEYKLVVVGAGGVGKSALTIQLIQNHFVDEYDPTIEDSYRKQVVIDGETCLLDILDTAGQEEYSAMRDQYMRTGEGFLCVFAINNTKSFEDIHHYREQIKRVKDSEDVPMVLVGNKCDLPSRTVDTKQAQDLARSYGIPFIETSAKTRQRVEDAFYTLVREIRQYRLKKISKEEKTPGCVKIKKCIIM

SMILES | IC50 [4] [nM] | Kd [1, 6] [nM] | NRAS/KRAS (ratio of KD value for NRAS to KD value for KRAS) [2] | HRAS/KRAS (ratio of KD value for HRAS to KD value for KRAS) [3] | further results
CCO[C@@H]1C[C@H]2C(=O)NC3(CCCC3)C(=O)N(C)[C@@H](C3CCCC3)C(=O)N(C)[C@H](C(=O)N3CCOCC3)CC(=O)N(C)[C@@H](CC)C(=O)N[C@@H]([C@@H](C)CC)C(=O)N(C)CC(=O)N(C)[C@H]3C[C@@H](C)[C@@H](C)CN(C3=O)[C@@H](Cc3ccc(C(F)(F)F)cc3)C(=O)N(C)CC(=O)N[C@@H](CCc3cc(F)c(C(F)(F)F)c(F)c3)C(=O)N2C1 [PP1353] | 3.7 |  |  |  | Kd ([1]; SPR, Single Cycle Kinetics, 1:1 binding model, GDP-bound KRAS wild-type protein, read-out: KRAS KD): 0.1 nM; NRAS/KRAS (ratio of KD value for NRAS to KD value for KRAS) ([2]; KD ratio class): A (a compound having 10 or more and less than 20 is denoted as A); HRAS/KRAS (ratio of KD value for HRAS to KD value for KRAS) ([3]; KD ratio class): B (a compound having 3 or more and less than 10 is denoted as B)
CCC[C@H]1C(=O)N[C@@H]([C@@H](C)CC)C(=O)N(C)CC(=O)N(C)[C@H]2C/C=C\CCN(C2=O)[C@@H](Cc2ccc(C)cc2)C(=O)N(C)CC(=O)N[C@@H](CCc2ccc(C(F)(F)F)c(OC)c2)C(=O)N2C[C@H](OCC)C[C@H]2C(=O)N(C)C2(CCC2)C(=O)N(C)[C@@H](C2CCCC2)C(=O)N(C)[C@H](C(=O)N2CCCCC2)CC(=O)N1C [PP3104, (2S,8S,12R,14S,20S,23S,27S,30S,36S,38Z)-20-cyclopentyl-12-ethoxy-8-[2-[3-methoxy-4-(trifluoromethyl)phenyl]ethyl]-4,16,19,22,26,32,35-heptamethyl-30-[(1S)-1-methylpropyl]-23-(piperidine-1-carbonyl)-27-propyl-2-(p-tolylmethyl)spiro[1,4,7,10,16,19,22,26,29,32,35-undecazatricyclo[34.5.1.0^10,14]dotetracont-38-ene-17,1′-cyclobutane]-3,6,9,15,18,21,25,28,31,34,42-undecone] |  | 0.097 | A (a compound having 10 or more and less than 20 is denoted as A) | A (a compound having 10 or more and less than 20 is denoted as A) | Kd [1, 5]: 0.097 nM; ratio of the KD value with respect to GDP-bound NRAS wild-type protein to the KD value with respect to KRAS [2]: A (a compound having 10 or more and less than 20 is denoted as A); ratio of the KD value with respect to GDP-bound HRAS wild-type protein to the KD value with respect to KRAS [3]: A (a compound having 10 or more and less than 20 is denoted as A); IC50 [4, 7]: 3.8 nM
CCO[C@H](C)[C@@H]1NC(=O)[C@H](CC(C)C)N(C)C(=O)C[C@@H](C(=O)N(C)CC)N(C)C(=O)[C@H](C2CCCC2)N(C)C(=O)C2(CC(C)(C)C2)NC(=O)[C@@H]2C[C@H](C)CN2C(=O)[C@H](CCc2cc(F)c(C(F)(F)F)c(F)c2)NC(=O)CN(C)C(=O)[C@H](Cc2ccc(C)cc2)N2CC/C=C\C[C@@H](C2=O)N(C)C(=O)CN(C)C1=O [PP2414] | 9.8 | 0.33 | A (a compound having 10 or more and less than 20 is denoted as A) | A (a compound having 10 or more and less than 20 is denoted as A) | 
CCC[C@H]1C(=O)N[C@@H]([C@@H](C)CC)C(=O)N2CCC[C@H]2C(=O)N(C)[C@H]2C/C=C\CCN(C2=O)[C@@H](Cc2ccc(C(F)F)cc2)C(=O)N(C)CC(=O)N[C@@H](CCc2ccc(Cl)c(Cl)c2)C(=O)N2C[C@H](OC(C)C)C[C@H]2C(=O)NC2(CC(C)(C)C2)C(=O)N(C)[C@@H](C(CC)CC)C(=O)N(C)[C@H](C(=O)N(C)C)CC(=O)N1C [PP2640] | 84.1 |  |  |  | Kd [1, 8]: 1.4 nM; NRAS/KRAS (ratio of KD value with respect to GDP-bound NRAS wild-type protein to KD value with respect to KRAS) [2]: AA (a compound having 20 or more is denoted as AA); HRAS/KRAS (ratio of KD value with respect to GDP-bound HRAS wild-type protein to KD value with respect to KRAS) [3]: A (a compound having 10 or more and less than 20 is denoted as A)
CCC[C@H]1C(=O)N[C@@H]([C@@H](C)CC)C(=O)N2CCC[C@H]2C(=O)N(C)[C@H]2C/C=C\CCN(C2=O)[C@@H](Cc2ccc(C(F)(F)F)cc2)C(=O)N(C)CC(=O)N[C@@H](CCc2cc(F)c(C(F)(F)F)c(F)c2)C(=O)N2C[C@H](OCC)C[C@H]2C(=O)N(C)C2(CCC2)C(=O)N(C)[C@@H](C2CCCC2)C(=O)N(C)[C@H](C(=O)N2CCCCC2)CC(=O)N1C [PP3114] |  | 4.5 | AA (a compound having 20 or more is denoted as AA) | A (a compound having 10 or more and less than 20 is denoted as A) | Kd [1, 5]: 4.5 nM; ratio of the KD value with respect to GDP-bound NRAS wild-type protein to the KD value with respect to KRAS [2]: AA (a compound having 20 or more is denoted as AA); ratio of the KD value with respect to GDP-bound HRAS wild-type protein to the KD value with respect to KRAS [3]: A (a compound having 10 or more and less than 20 is denoted as A); IC50 [4, 7]: 14.7 nM
CCO[C@@H]1C[C@H]2C(=O)NC3(CCCC3)C(=O)N(C)[C@@H](C3CCCC3)C(=O)N(C)[C@H](C(=O)N3CCOCC3)CC(=O)N(C)[C@@H](COC)C(=O)N[C@@H]([C@@H](C)CC)C(=O)N3CC[C@H]3C(=O)N(C)[C@H]3CCCCCN(C3=O)[C@@H](Cc3ccc(C(F)(F)F)cc3)C(=O)N(C)CC(=O)N[C@@H](CCc3cc(F)c(C(F)(F)F)c(F)c3)C(=O)N2C1 [PP0867] | 206 | 1.2 | B (a compound having 3 or more and less than 10 is denoted as B) | B (a compound having 3 or more and less than 10 is denoted as B) | 
CCC[C@H]1C(=O)N[C@@H]([C@@H](C)CC)C(=O)N2CCC[C@H]2C(=O)N(C)[C@H]2C/C=C\CCN(C2=O)[C@@H](Cc2ccc(C(F)(F)F)cc2)C(=O)N(C)CC(=O)N[C@@H](CCc2cc(F)c(C(F)(F)F)c(F)c2)C(=O)N2C[C@H](OCC)C[C@H]2C(=O)N(C)C2(CCC2)C(=O)N(C)[C@@H](C2CCCC2)C(=O)N(C)[C@H](C(=O)N2CCCC2)CC(=O)N1C [PP3116] |  | 0.27 | A (a compound having 10 or more and less than 20 is denoted as A) | A (a compound having 10 or more and less than 20 is denoted as A) | Kd [1, 5]: 0.27 nM; ratio of the KD value with respect to GDP-bound NRAS wild-type protein to the KD value with respect to KRAS [2]: A (a compound having 10 or more and less than 20 is denoted as A); ratio of the KD value with respect to GDP-bound HRAS wild-type protein to the KD value with respect to KRAS [3]: A (a compound having 10 or more and less than 20 is denoted as A); IC50 [4, 7]: 7.8 nM
CCCO[C@H](C)[C@@H]1NC(=O)[C@H](CC(C)C)N(C)C(=O)C[C@@H](C(=O)N(C)CC)N(C)C(=O)[C@H](C2CCCC2)N(C)C(=O)C2(CC(C)(C)C2)NC(=O)[C@@H]2C[C@H](C)CN2C(=O)[C@H](CCc2cc(F)c(C(F)(F)F)c(F)c2)NC(=O)CN(C)C(=O)[C@H](Cc2ccc(C)cc2)N2CC/C=C\C[C@@H](C2=O)N(C)C(=O)CN(C)C1=O [PP2417] | 15.9 | 0.3 | A (a compound having 10 or more and less than 20 is denoted as A) | A (a compound having 10 or more and less than 20 is denoted as A) | 
CCOC[C@H]1C(=O)N[C@@H]([C@@H](C)CC)C(=O)N(C)CC(=O)N(C)[C@H]2C/C=C\CCN(C2=O)[C@@H](Cc2ccc(C)cc2)C(=O)N(C)CC(=O)N[C@@H](CCc2ccc(C(F)(F)F)c(Cl)c2)C(=O)N2C[C@@H](C)C[C@H]2C(=O)NC2(CC(C)(C)C2)C(=O)N(C)[C@@H](C2CCCC2)C(=O)N(C)[C@H](C(=O)N(CC)CC)CC(=O)N1C [PP2465] | 39.4 | 0.51 | AA (a compound having 20 or more is denoted as AA) | A (a compound having 10 or more and less than 20 is denoted as A) | 
CCO[C@@H]1C[C@H]2C(=O)NC3(CC(C)(C)C3)C(=O)N(C)[C@@H](CC(C)(C)C)C(=O)N(C)[C@H](C(=O)N(C)C)CC(=O)N(C)[C@@H](COC)C(=O)N[C@@H]([C@@H](C)CC)C(=O)N(C3CC3)CC(=O)N(C)[C@H]3C/C=C\CCN(C3=O)[C@@H](Cc3ccc(C(F)(F)F)cc3)C(=O)N(C)CC(=O)N[C@@H](CCc3cc(F)c(C(F)(F)F)c(F)c3)C(=O)N2C1 [PP2744] | 10.7 |  |  |  | Kd [1, 8]: 0.23 nM; NRAS/KRAS (ratio of KD value with respect to GDP-bound NRAS wild-type protein to KD value with respect to KRAS) [2]: A (a compound having 10 or more and less than 20 is denoted as A); HRAS/KRAS (ratio of KD value with respect to GDP-bound HRAS wild-type protein to KD value with respect to KRAS) [3]: A (a compound having 10 or more and less than 20 is denoted as A)
CCO[C@@H]1C[C@H]2C(=O)NC3(CCC3)C(=O)N(C)[C@@H](C3CCCC3)C(=O)N(C)[C@H](C(=O)N(C)C)CC(=O)N(C)[C@@H](Cc3cccc(C#N)c3)C(=O)N[C@@H]([C@@H](C)CC)C(=O)N(C)CC(=O)N(C)[C@H]3CCCCCN(C3=O)[C@@H](Cc3ccc(F)cc3)C(=O)N(C)CC(=O)N[C@@H](CCc3cc(F)c(C(F)(F)F)c(F)c3)C(=O)N2C1 [PP1156] | 33.7 | 0.063 | B (a compound having 3 or more and less than 10 is denoted as B) | B (a compound having 3 or more and less than 10 is denoted as B) | 
CCC[C@H]1C(=O)N[C@@H]([C@@H](C)CC)C(=O)N(C2CC2)CC(=O)N(C)[C@H]2C/C=C\CCN(C2=O)[C@@H](Cc2ccc(C)cc2)C(=O)N(C)CC(=O)N[C@@H](CCc2ccc(Cl)c(Cl)c2)C(=O)N2C[C@H](OCC)C[C@H]2C(=O)NC2(CC(C)(C)C2)C(=O)N(C)[C@@H](C(CC)CC)C(=O)N(C)[C@H](C(=O)N(C)C)CC(=O)N1C [PP2561] | 96.4 |  |  |  | Kd [1, 8]: 1.9 nM; NRAS/KRAS (ratio of KD value with respect to GDP-bound NRAS wild-type protein to KD value with respect to KRAS) [2]: AA (a compound having 20 or more is denoted as AA); HRAS/KRAS (ratio of KD value with respect to GDP-bound HRAS wild-type protein to KD value with respect to KRAS) [3]: A (a compound having 10 or more and less than 20 is denoted as A)
